Laboratory results reported in patent US9228202B2, “Intracellular viral vector delivery method employing iron ion/viral vector composite” (POSTECH ACADEMY-INDUSTRY FOUNDATION, priority 2009, dated 2016).

Key:
[1] = system: rBMSC; experiment: Cytotoxicity assay of ferric ions (CCK8 cell viability); assay type: cell-based, rat
Method: A cytotoxicity assay was done with rBMSC in order to evaluate the safety of ferric ions alone or the ferric ion/adenoviral vector composite to the body. rBMSC was incubated for 2 hours with 0.2 μM˜50 mM ferric ions alone or in combination with 100 MOI of an adenoviral vector. On the next day, cell viability was determined using a CCK8 kit (DOJINDO, Japan).

[2] = system: rBMSC; experiment: Comparison of intracellular delivery of adenoviral vector among ferrous, ferric and calcium ions; assay type: cell-based, rat; conditions: rAd/EGFP 30 MOI with 50 μM cation
Method: To examine whether ferric irons (Fe^3+) improve the delivery of […] into cells, the adenoviral vector rAd/EGFP, which carries a GFP (green fluorescent protein) gene, was employed. First, 30 or 100 MOI of rAd/EGFP was mixed and incubated with 2 μM, 10 μM or 50 μM ferric ions for 30 min at room temperature, followed by infection for 2 hours into rat bone marrow mesenchymal stem cells (rBMSC), the human cervical cancer cell line HeLa, and the human amelanotic melanoma cell line (A375), all free from the expression of CAR, a primary receptor for adenoviruses. Then, the viral mixture was removed and the medium was changed with DMEM before incubation for two days in a CO2 incubator (CO2 water Jacketed Incubator, Form a Scientific™). The cells were detached by trypsinization and analyzed for intracellular GFP level using FACS (fluorescence activated cell sorter, BD).
Ferrous and ferric ions were compared with calcium ions, known to improve the gene delivery of adenoviral vectors, for efficacy of gene delivery. In this regard, rBMSC was treated with rAd/EGFP (30 MOI) and 50 μM cations (Fe^2+, Fe^3+, Ca^2+) in the same manner as in Example 1, and the efficacy of gene delivery was compared among the cations.

SMILES | 50% cell viability concentration relative to the iron ion concentration used for gene delivery (10~50 μM) [1] [fold] | iron ion concentration at which cytotoxicity starts ([1]; 2 h incubation, CCK8 next day) [mM] | cell viability ([1]; iron ion concentration of 50 mM, CCK8) | gene delivery efficiency relative to calcium ions [2] [times]
[Fe+3] [ferric ions] | 1000 | 10 | decreased to zero | 60
[Fe+2] [ferrous ions] | – | – | – | 60
